Test results published in patent publication US20050187244A1 (Entire Interest., priority 2004, published 2005).

How the values were obtained:
[1] = Solid form transformation while stirred in organic solvent (slurry); assay type: physicochemical; details: stirred in an organic solvent for more than about 2 days, e.g. dichloromethane and optionally heptane
From the text: The various forms are related in that one form may transform to another while in an organic solvent, such as a slurry resulting from crystallization. […] Such transformation occurs for example in a reaction mixture containing dichloromethane and optionally a C5 to C12 hydrocarbon such as heptane.

[2] = Solid form transformation on drying; assay type: physicochemical; details: drying under heating, preferably 50 C. overnight under vacuum, about 10-100 mm Hg; monosodium salt
Method: The various forms are related in that drying of one form may lead to another form. Drying may be carried out under ambient or reduced pressure under heating. The temperature during heating is preferably about 40° C. to about 60° C., more preferably about 40° C. to about 50° C. The drying for a few days, such as about two days may be sufficient for transformation. In a preferred embodiment, drying is performed at 50C. overnight under vacuum, about 10-100 mm Hg.
Some solutions were stirred at room temperature; others were heated to the indicated temperature. The precipitate was recovered by filtration and washed with the solvent (5 mL) to obtain a wet sample. A portion of the wet sample was dried overnight in a vacuum at 50° C. at 10-50 mm Hg to obtain a dry sample. The wet and dry samples were analyzed by X-ray diffraction.

[3] = powder; cited from earlier work

Structure (SMILES)	form transformation in organic solvent [1]	form obtained on drying [2]	hygroscopicity [3]
CC(C)(O)c1ccccc1CC[C@@H](SCC1(CC(=O)[O-])CC1)c1cccc(/C=C/c2ccc3ccc(Cl)cc3n2)c1.[Na+] [Form B1, [R-(E)]-1-[[[1-[3-[2-(7-chloro-2-quinolinyl)ethenyl]phenyl]-3-[2-(1-hydroxy-1-methylethyl)phenyl]propyl]thio]methyl]cyclopropaneacetic acid, monosodium salt]	transforms to Form C	Form C	–
CC(C)(O)c1ccccc1CC[C@@H](SCC1(CC(=O)[O-])CC1)c1cccc(/C=C/c2ccc3ccc(Cl)cc3n2)c1.[Na+] [Montelukast sodium, [R-(E)]-1-[[[1-[3-[2-(7-chloro-2-quinolinyl)ethenyl]phenyl]-3-[2-(1-hydroxy-1-methylethyl)phenyl]propyl]thio]methyl]cyclopropaneacetic acid, monosodium salt]	–	–	hygroscopic
CC(C)(O)c1ccccc1CC[C@@H](SCC1(CC(=O)[O-])CC1)c1cccc(/C=C/c2ccc3ccc(Cl)cc3n2)c1.[Na+] [Form B2, [R-(E)]-1-[[[1-[3-[2-(7-chloro-2-quinolinyl)ethenyl]phenyl]-3-[2-(1-hydroxy-1-methylethyl)phenyl]propyl]thio]methyl]cyclopropaneacetic acid, monosodium salt]	–	Form B1 or form C	–
